Measured values from US20070078085A1, “Methods and compositions for the utilization and targeting of osteomimicry” (priority 2004, published 2007).

Tests used:
hBSP promoter = assay: hBSP promoter-luciferase reporter activity in transfected cells; assay type: cell-based, human; conditions: C4-2B cells; H-89 10^−8 to 10^−6 M for 2 h, then FSK 10^−6 M 16 h; concentration-dependent
Source text: Plasmid Construction. Genomic DNA was used in the PCR of the 0.8-kb hOC promoter inserting KpnI and XhoI sites, subsequently cloned into pGL3-Basic-luciferase reporter vector (Promega, Madison, Wis.) as described before (9). The deletion constructs, ΔA [374 bp upstream of AP1/VDRE (AV) element], ΔTst-1 (POU-factor Tst-1/Oct-6 binding site), ΔCRE (cAMP-responsive element) and ΔIRF-1 (interferon regulatory factor-i binding site) in hOC promoter/pGL3 were generated by recombinant PCR technique. The point mutation plasmids in CRE (from -643 to -636 in hOC promoter, 5′-[…]-3′) were constructed with a QuikChange Site-Directed Mutagenesis Kit (Stratagene). […]
Transfection and Luciferase Activity Assay. […] For luciferase activity assay, 20 μl of the lysate supernatant was mixed with 100 μl of the luciferase substrate (Promega) and detected by a luminometer (Monolight 3010, luminometer PharMingen, San Diego, Calif.). For β-galactosidase activity assay, 100 μl of the supernatant was mixed with 100 μl of 2×β-galactosidase substrate [200 mM sodium phosphate buffer, pH 7.3, 2 mM MgCl2, 100 mM β-mercaptoethanol and 1.33 mg/ml o-nitrophenyl-β-D-galactopyranoside (ONPG)], and incubated at 37° C. for 30 min. β-galactosidase activity was detected by Microplate spectrophotometer (Molecular Devices Corp., Sunnyvale, Calif.) at 405 nm wavelength. […]

[1] = system: CRE-nuclear protein (CREB) complexes; assay: Electrophoretic mobility shift assay (EMSA) with 32P-labeled CRE probe and nuclear extracts of treated cells; assay type: cell-based, human; conditions: nuclear extracts of C4-2B cells; H-89 10^−6 M
Protocol: Electrophoretic Mobility Shift Assay (EMSA). A LNCaP-lineaged metastatic human prostate cancer cell line, C4-2B, and the human osteosarcoma cell line MG63 were plated in 15-cm diameter tissue culture dishes in T-medium (with 5% serum) until 80% confluence. Cells were then switched to 1-day complete serum-free condition and then treated with or without ARCaP CM (15 μg/ml) or FSK (10^−5 M) for an additional 16 h. Nuclear extracts were prepared from C4-2B and MG63 for EMSA as described by Ausubel et al (37). Briefly, cells were washed with cold PBS twice, harvested and homogenized in hypotonic buffer (10 mM HEPES, pH 7.9, 1.5 mM MgCl2, 10 mM KCl, 0.5 mM DTT and 0.2 mM PMSF). After centrifugation, the nuclear pellets were stirred and incubated for 30 min in high-salt buffer (20 mM HEPES, pH 7.9, 25% glycerol, 1.5 mM MgCl2, 1.2 M KCl, 0.2 mM EDTA, 0.5 mM DTT and 0.2 mM PMSF) on ice. The nuclear pellets were centrifuged, and the nuclear extract supernatants were dialyzed twice against dialysis buffer (20 mM HEPES, pH 7.9, 20% glycerol, 100 mM KCl, 0.2 mM EDTA, 0.5 mM DTT and 0.2 mM PMSF) overnight. The concentration of nuclear proteins was determined by the Bradford method using Coomassie plus protein reagent (Pierce). Synthetic oligonucleotides were purified by PAGE. Appropriate pairs were annealed by heating up to 95° C. for 10 min and naturally cooled down to room temperature. […]

O=S(=O)(NCCNCC=Cc1ccc(Br)cc1)c1cccc2cnccc12 [H-89, N-[2-(p-bromocinnamylamino)ethyl]-5-isoquinolinesulfonamide]
FSK-stimulated hBSP promoter activity (hBSP promoter): inhibited
ARCaP CM- and FSK-induced CRE binding to nuclear proteins [1]: abolish
